Measurements from patent publication US10150728B2, “Alkylene derivatives” (Shionogi & Co., Ltd., priority 2013, dated 2018).

Biological target: recombinant human ACC2 (Homo sapiens (Human), UniProt O00763)
Assay: Measurement of inhibitory activity on human ACC2 (MALDI-TOF MS, acetyl CoA to malonyl CoA conversion)
Assay type: biochemical
Conditions: Tables 155-159
How it was run: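 His-tagged human ACC2 (residues 27–2458) from baculovirus-infected Sf-9 cells was preincubated 1 h in pH 7.4 HEPES-KOH buffer with MgCl2, 6-10 mM potassium citrate, glutathione and BSA. Substrate solution held 1 mM ATP, 0.8 mM acetyl CoA and 25-50 mM bicarbonate. After 1–3 h at room temperature, malonyl CoA/(malonyl+acetyl CoA) was read by negative-mode MALDI-TOF MS; citrate, bicarbonate and time varied by enzyme lot.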

Chain of recombinant human ACC2 (O00763 27-2458): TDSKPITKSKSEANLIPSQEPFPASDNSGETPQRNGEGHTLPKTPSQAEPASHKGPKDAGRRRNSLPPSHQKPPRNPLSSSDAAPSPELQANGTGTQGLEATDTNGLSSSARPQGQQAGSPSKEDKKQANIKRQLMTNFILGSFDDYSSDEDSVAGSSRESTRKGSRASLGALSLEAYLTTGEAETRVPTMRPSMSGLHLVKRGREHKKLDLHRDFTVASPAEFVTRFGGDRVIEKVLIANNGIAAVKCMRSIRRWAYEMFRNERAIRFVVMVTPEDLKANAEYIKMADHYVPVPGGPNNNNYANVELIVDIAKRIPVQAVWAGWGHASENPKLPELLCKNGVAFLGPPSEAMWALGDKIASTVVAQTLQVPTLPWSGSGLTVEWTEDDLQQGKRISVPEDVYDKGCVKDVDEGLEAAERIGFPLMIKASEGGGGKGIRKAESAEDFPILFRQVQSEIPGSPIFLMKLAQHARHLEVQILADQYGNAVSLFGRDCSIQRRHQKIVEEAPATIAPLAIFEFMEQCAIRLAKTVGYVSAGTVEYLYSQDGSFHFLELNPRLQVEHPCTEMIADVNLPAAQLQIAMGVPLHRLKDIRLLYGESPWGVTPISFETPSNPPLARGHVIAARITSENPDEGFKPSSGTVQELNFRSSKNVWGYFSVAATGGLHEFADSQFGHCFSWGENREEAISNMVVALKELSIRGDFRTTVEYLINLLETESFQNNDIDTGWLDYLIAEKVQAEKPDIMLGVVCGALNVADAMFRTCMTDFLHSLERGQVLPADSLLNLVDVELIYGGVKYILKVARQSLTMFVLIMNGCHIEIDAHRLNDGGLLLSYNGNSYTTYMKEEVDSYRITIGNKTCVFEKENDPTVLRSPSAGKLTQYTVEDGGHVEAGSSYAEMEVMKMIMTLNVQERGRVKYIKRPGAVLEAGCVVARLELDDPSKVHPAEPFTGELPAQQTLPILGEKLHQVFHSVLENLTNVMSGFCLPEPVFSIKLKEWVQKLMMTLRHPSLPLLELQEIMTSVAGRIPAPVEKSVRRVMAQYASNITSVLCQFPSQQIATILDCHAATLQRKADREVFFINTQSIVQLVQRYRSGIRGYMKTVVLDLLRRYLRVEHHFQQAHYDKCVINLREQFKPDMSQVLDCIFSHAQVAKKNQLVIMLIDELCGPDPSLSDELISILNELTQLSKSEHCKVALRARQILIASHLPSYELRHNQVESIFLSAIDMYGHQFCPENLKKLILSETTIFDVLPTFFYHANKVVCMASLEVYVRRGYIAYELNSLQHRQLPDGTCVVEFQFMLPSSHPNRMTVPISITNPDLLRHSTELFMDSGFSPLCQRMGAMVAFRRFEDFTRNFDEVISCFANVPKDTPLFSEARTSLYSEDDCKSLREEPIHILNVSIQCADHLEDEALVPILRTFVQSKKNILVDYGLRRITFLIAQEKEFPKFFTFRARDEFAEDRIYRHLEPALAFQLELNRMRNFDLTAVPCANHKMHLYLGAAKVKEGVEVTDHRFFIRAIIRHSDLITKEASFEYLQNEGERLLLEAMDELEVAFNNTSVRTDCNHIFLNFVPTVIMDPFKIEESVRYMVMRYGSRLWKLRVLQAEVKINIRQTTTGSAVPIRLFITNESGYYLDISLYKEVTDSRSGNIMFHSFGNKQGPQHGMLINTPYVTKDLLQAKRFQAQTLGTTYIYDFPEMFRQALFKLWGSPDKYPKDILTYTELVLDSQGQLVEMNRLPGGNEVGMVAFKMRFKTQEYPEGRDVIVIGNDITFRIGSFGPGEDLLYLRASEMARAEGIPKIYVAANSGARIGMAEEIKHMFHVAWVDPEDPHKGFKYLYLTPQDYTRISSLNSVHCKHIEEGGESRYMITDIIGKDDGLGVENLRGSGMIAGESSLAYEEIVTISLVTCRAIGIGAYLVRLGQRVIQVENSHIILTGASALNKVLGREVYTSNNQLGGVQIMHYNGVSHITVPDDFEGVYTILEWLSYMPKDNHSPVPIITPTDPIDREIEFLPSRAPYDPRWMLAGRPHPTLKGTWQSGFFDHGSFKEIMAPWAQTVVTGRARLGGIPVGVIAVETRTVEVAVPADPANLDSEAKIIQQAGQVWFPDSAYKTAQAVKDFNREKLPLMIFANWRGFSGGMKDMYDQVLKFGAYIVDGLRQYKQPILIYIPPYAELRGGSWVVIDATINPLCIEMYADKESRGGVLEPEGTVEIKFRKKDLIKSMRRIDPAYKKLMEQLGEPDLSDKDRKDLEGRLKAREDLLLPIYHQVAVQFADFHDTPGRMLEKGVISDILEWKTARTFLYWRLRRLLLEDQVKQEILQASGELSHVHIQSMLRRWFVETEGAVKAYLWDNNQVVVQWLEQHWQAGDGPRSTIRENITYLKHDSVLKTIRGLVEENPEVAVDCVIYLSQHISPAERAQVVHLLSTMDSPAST

Row | IC50 [µM] | SMILES
1 | 0.028 | CC(=O)N[C@@H](C)CO[C@H]1C[C@H](COc2nc3sc(OCC(F)F)nc3cc2Cl)C1 [Compound I-213]
2 | 0.039 | CCOc1nc2c(Cl)c(F)c(OC[C@H]3C[C@H](OC[C@H](C)NC(C)=O)C3)nc2s1 [Compound I-214]
3 | 0.021 | CC(=O)N[C@@H](C)CO[C@H]1C[C@H](COc2ccc3nc(N4CC(F)(F)C4)sc3n2)C1 [Compound I-215]
4 | 0.008 | CCOc1nc2ccc(OC[C@H]3C[C@@H](OC[C@H](C)NC(C)=O)C3)nc2s1 [Compound I-216]
5 | 0.008 | CC(=O)N[C@@H](C)CO[C@H]1C[C@@H](COc2ccc3nc(OCC(F)F)sc3n2)C1 [Compound I-217]
6 | 0.008 | CC(=O)N[C@@H](C)CO[C@H]1C[C@H](COc2ccc3nc(OC4CC(F)(F)C4)sc3n2)C1 [Compound I-218]
7 | 0.004 | CC(=O)N[C@@H](C)CO[C@H]1CC[C@H](Oc2cc3sc(OC4CC(F)(F)C4)nc3cn2)CC1 [Compound I-219]
8 | 0.009 | CC(=O)N[C@@H](C)CO[C@H]1CC[C@H](Oc2cc3sc(OCC4CC4(F)F)nc3cn2)CC1 (stereo partly drawn) [Compound I-220]
9 | 0.172 | CC(=O)N[C@@H](C)CO[C@H]1CC[C@H](Oc2cc3sc(OCc4ccc(F)cc4)nc3cn2)CC1 [Compound I-221]
10 | 0.246 | CC(=O)N[C@@H](C)CO[C@H]1CC[C@H](Oc2cc3sc(OCC4(F)COC4)nc3cn2)CC1 [Compound I-222]
11 | 0.048 | CC(=O)N[C@@H](C)CO[C@H]1CC[C@H](Oc2cc3sc(OC(C)CF)nc3cn2)CC1 (stereo partly drawn) [Compound I-223]
12 | 0.034 | CC(=O)N[C@@H](C)CO[C@H]1CC[C@H](Oc2cc3sc(OC4CC4)nc3cn2)CC1 [Compound I-224]
13 | 0.048 | CCOc1nc2ccc(OC[C@]3(F)C[C@H](OC[C@H](C)NC(C)=O)C3)nc2s1 [Compound I-225]
14 | 0.103 | CC(=O)N[C@@H](C)CO[C@H]1C[C@@](F)(COc2ccc3nc(OCC(F)F)sc3n2)C1 [Compound I-226]
15 | 0.036 | CC(=O)N[C@@H](C)CO[C@H]1C[C@H](COc2ccc3nc(N4CCC(F)(F)CC4)sc3n2)C1 [Compound I-227]
16 | 0.027 | CC(=O)N[C@@H](C)CO[C@H]1C[C@H](COc2ccc3nc(N4CCC(F)(F)C4)sc3n2)C1 [Compound I-228]
17 | 0.113 | CC(=O)N[C@@H](C)CO[C@H]1C[C@H](COc2ccc3nc(N4CCOCC4)sc3n2)C1 [Compound I-229]
18 | 0.054 | CCN(C)c1nc2ccc(OC[C@H]3C[C@H](OC[C@H](C)NC(C)=O)C3)nc2s1 [Compound I-230]
19 | 0.183 | CC(=O)N[C@@H](C)CO[C@H]1C[C@H](COc2ccc3nc(N(C)C)sc3n2)C1 [Compound I-231]
20 | 0.021 | CCOc1nc2ccc(O[C@H]3CC[C@H](OC[C@H](CC)NC(C)=O)CC3)c(F)c2s1 [Compound I-232]
21 | 0.084 | CCOc1nc2ccc(OC[C@H]3C[C@H](OC[C@H](CC)NC(C)=O)C3)c(F)c2s1 [Compound I-233]
22 | 0.008 | CC(=O)N[C@@H](C)CO[C@H]1CC[C@H](Oc2ncc3nc(N4CCC4)sc3c2F)CC1 [Compound I-234]
23 | 0.022 | CC(=O)N[C@@H](C)CO[C@H]1CC[C@H](Oc2ncc3nc(N4CC(F)C4)sc3c2F)CC1 [Compound I-235]

Row | IC50 [µM] | SMILES
24 | 0.102 | CC(=O)N[C@@H](C)CO[C@H]1CC[C@H](Oc2ccc3nc(N4CCCC(F)(F)C4)sc3c2F)CC1 [Compound I-236]
25 | 0.891 | CC(=O)N[C@@H](C)CO[C@H]1CC[C@H](Oc2ccc3nc(N4CCC4c4ccccc4)sc3c2F)CC1 (stereo partly drawn) [Compound I-237]
26 | 0.004 | CC(=O)N[C@@H](C)CO[C@H]1CC[C@H](Oc2ncc3nc(OC4CC4)sc3c2F)CC1 [Compound I-238]
27 | 0.008 | CC(=O)N[C@@H](C)CO[C@H]1CC[C@H](Oc2ncc3nc(OCC(F)F)sc3c2F)CC1 [Compound I-239]
28 | 0.007 | CC(=O)N[C@@H](C)CO[C@H]1CC[C@H](Oc2ncc3nc(OC(C)C)sc3c2F)CC1 [Compound I-240]
29 | 0.173 | CC(=O)N[C@@H](C)CO[C@H]1CC[C@H](Oc2ncc3nc(N4CC(F)(F)C4)sc3c2F)CC1 [Compound I-241]
30 | 0.007 | CC(=O)N[C@@H](C)CO[C@H]1C[C@H](COc2ccc3nc(OC4CCCC4)sc3n2)C1 [Compound I-242]
31 | 0.028 | CC(=O)N[C@@H](C)CO[C@H]1C[C@H](COc2ccc3nc(OC4CCOCC4)sc3n2)C1 [Compound I-243]
32 | 0.007 | CC(=O)N[C@@H](C)CO[C@H]1C[C@H](COc2ccc3nc(OC4CCCCC4)sc3n2)C1 [Compound I-244]
33 | 0.004 | CC(=O)N[C@@H](C)CO[C@H]1C[C@H](COc2ccc3nc(OC4CCC4)sc3n2)C1 [Compound I-245]
34 | 0.047 | CC(=O)N[C@@H](C)CO[C@H]1C[C@H](COc2ccc3nc(O[C@H]4CCOC4)sc3n2)C1 [Compound I-246]
35 | 0.017 | CC(=O)N[C@@H](C)CO[C@H]1C[C@H](COc2ccc3nc(O[C@@H]4CCOC4)sc3n2)C1 [Compound I-247]
36 | 0.009 | CC(=O)N[C@@H](C)CO[C@H]1C[C@H](COc2ccc3nc(OC4CCSCC4)sc3n2)C1 [Compound I-248]
37 | 0.008 | CC(=O)N[C@@H](C)CO[C@H]1C[C@H](COc2ccc3nc(OC4CCSC4)sc3n2)C1 (stereo partly drawn) [Compound I-249]
38 | 0.031 | COc1nc2ccc(OC[C@H]3C[C@H](OC[C@H](C)NC(C)=O)C3)nc2s1 [Compound I-250]
39 | 0.022 | CC(=O)N[C@@H](C)CO[C@H]1C[C@@H](COc2ccc3nc(N4CC(F)(F)C4)sc3n2)C1 [Compound I-251]
40 | 0.008 | CC(=O)N[C@@H](C)CO[C@H]1CC[C@H](Oc2ncc3nc(OC4CC(F)(F)C4)sc3c2F)CC1 [Compound I-252]
41 | 0.011 | CC(=O)N[C@@H](C)CO[C@H]1CC[C@H](Oc2ncc3nc(OCC4CC4(F)F)sc3c2F)CC1 (stereo partly drawn) [Compound I-253]
42 | 0.02 | CC(=O)N[C@@H](C)CO[C@H]1C[C@H](COc2ccc3nc(N4CC(F)(F)C(F)(F)C4)sc3n2)C1 [Compound I-254]
43 | 0.024 | CC(=O)N[C@@H](C)CO[C@H]1C[C@H](COc2ccc3nc(N4CCC4)sc3n2)C1 [Compound I-255]
44 | 0.039 | CC(=O)N[C@@H](C)CO[C@H]1C[C@H](COc2ccc3nc(N4CC(F)C4)sc3n2)C1 [Compound I-256]
45 | 0.014 | CC(=O)N[C@@H](C)CO[C@H]1C[C@H](COc2ccc3nc(N4CCCC4)sc3n2)C1 [Compound I-257]
46 | 0.099 | CC(=O)N[C@@H](C)CO[C@H]1C[C@H](COc2cc(C)c3nc(OC4CC4)sc3n2)C1 [Compound I-258]

Row | IC50 [µM] | SMILES
47 | 0.086 | CC(=O)N[C@@H](C)CO[C@H]1CC[C@H](Oc2cc3sc(O[C@H]4CCOC4)nc3cn2)CC1 [Compound I-259]
48 | 0.102 | CC(=O)N[C@@H](C)CO[C@H]1CC[C@H](Oc2cc3sc(O[C@@H]4CCOC4)nc3cn2)CC1 [Compound I-260]
49 | 0.017 | CC(=O)N[C@@H](C)CO[C@H]1CC[C@H](Oc2cc3sc(OCC4(C)CC4)nc3cn2)CC1 [Compound I-261]
50 | 0.053 | CC(=O)N[C@@H](C)CO[C@H]1CC[C@H](Oc2cc3sc(OC[C@@H](C)F)nc3cn2)CC1 [Compound I-262]
51 | 0.862 | CC(=O)N[C@@H](C)CO[C@H]1CC[C@H](Oc2cc3sc(OCC(C)(C)C#N)nc3cn2)CC1 [Compound I-263]
52 | 0.372 | CC(=O)N[C@@H](C)CO[C@H]1CC[C@H](Oc2cc3sc(OCC4(C#N)CC4)nc3cn2)CC1 [Compound I-264]
53 | 0.016 | CC(=O)N[C@@H](C)CO[C@H]1C[C@H](COc2ccc3nc(N4CCCCC4)sc3n2)C1 [Compound I-265]
54 | 0.036 | CC(=O)N[C@@H](C)CO[C@H]1C[C@H](COc2nc3sc(N4CCC4)nc3cc2F)C1 [Compound I-266]
55 | 0.058 | CC(=O)N[C@@H](C)CO[C@H]1C[C@H](COc2nc3sc(N4CC(F)C4)nc3cc2F)C1 [Compound I-267]
56 | 0.042 | CC(=O)N[C@@H](C)CO[C@H]1C[C@H](COc2nc3sc(N4CC(F)(F)C4)nc3cc2F)C1 [Compound I-268]
57 | 0.125 | CC(=O)N[C@@H](C)CO[C@H]1C[C@H](COc2ccc3nc(N4CCC4)sc3c2F)C1 [Compound I-269]
58 | 0.116 | CC(=O)N[C@@H](C)CO[C@H]1C[C@H](COc2ccc3nc(N4CCCC4)sc3c2F)C1 [Compound I-270]
59 | 0.083 | CC(=O)N[C@@H](C)CO[C@H]1CC[C@H](Oc2cc3sc(O[C@H]4C[C@@H](C#N)C4)nc3cn2)CC1 [Compound I-271]
60 | 0.123 | C[C@@H](CO[C@H]1CC[C@H](Oc2ncc3nc(OC4CC4)sc3c2F)CC1)NC(=O)CO [Compound I-272]
61 | 0.035 | CC(=O)N[C@@H](C)CO[C@H]1CC[C@H](Oc2ncc3nc(OC4COC4)sc3c2F)CC1 [Compound I-273]
62 | 0.09 | CC(=O)N[C@@H](C)CO[C@H]1CC[C@H](Oc2ncc3nc(OCC4(F)COC4)sc3c2F)CC1 [Compound I-274]
63 | 0.156 | CC(=O)N[C@@H](C)CO[C@H]1CC[C@H](Oc2ncc3nc(OCC4(C#N)CC4)sc3c2F)CC1 [Compound I-275]
64 | 0.013 | CC(=O)N[C@@H](C)CO[C@H]1CC[C@H](Oc2ncc3nc(O[C@H]4CCOC4)sc3c2F)CC1 [Compound I-276]
65 | 0.032 | CC(=O)N[C@@H](C)CO[C@H]1CC[C@H](Oc2ncc3nc(O[C@@H]4CCOC4)sc3c2F)CC1 [Compound I-277]
66 | 0.087 | CC(=O)N[C@@H](C)CO[C@H]1CC[C@H](Oc2cc(C)c3nc(N4CC(F)(F)C4)sc3n2)CC1 [Compound I-278]
67 | 0.008 | CCOc1nc2c(C)cc(O[C@H]3CC[C@H](OC[C@H](C)NC(C)=O)CC3)nc2s1 [Compound I-279]
68 | 0.079 | CO[C@H]1C[C@H](Oc2nc3ccc(OC[C@H]4C[C@H](OC[C@H](C)NC(C)=O)C4)nc3s2)C1 [Compound I-280]
69 | 0.041 | CO[C@H]1C[C@@H](Oc2nc3ccc(OC[C@H]4C[C@H](OC[C@H](C)NC(C)=O)C4)nc3s2)C1 [Compound I-281]
